In patent publication US20130281397A1, “TREATMENT OF DISEASES BY EPIGENETIC REGULATION” (RVX Therapeutics Inc., priority 2012, published 2013):
Structures can show the parent of a compound that is named as a salt.

What was measured:
Brd4 bromodomain 1 = target: T1, Brd4 bromodomain 1 (Homo sapiens, UniProt O60885); assay: Inhibition of binding of tetra-acetylated histone H4 and Brd4 bromodomain 1 by TR-FRET; details: His-tagged bromodomain 200 nM, biotinylated tetra-acetylated histone H4 peptide 25-50 nM, 2 hours at room temperature
T1 construct: made in house; host or cells: E. coli BL21(DE3)
Description: Proteins were cloned and overexpressed with a N-terminal 6×His tag, then purified by nickel affinity followed by size exclusion chromatography. Briefly, E. coli BL21(DE3) cells were transformed with a recombinant expression vector encoding N-terminally […] tagged bromodomains from Brd2, Brd3, or Brd4. Cell cultures were incubated at 37° C. with shaking to the appropriate density and induced overnight with IPTG. The supernatant of lysed cells was loaded onto Ni-IDA column for purification. Eluted protein was pooled, concentrated and further purified by size exclusion chromatography. Fractions representing monomeric protein were pooled, concentrated, aliquoted, and frozen at −80° C. for use in subsequent experiments.
For inhibition assays, serially diluted test compound was added to these reactions in a 0.2% final concentration of DMSO. Final buffer concentrations were 30 mM HEPES pH 7.4, 30 mM NaCl, 0.3 mM CHAPS, 20 mM phosphate pH 7.0, 320 mM KF, 0.08% BSA). […] The binding inhibitory activity was shown by a decrease in 665 nm fluorescence relative to 620 nm. IC50 values were determined from a dose response curve.

Row | SMILES | FRET activity (<50 uM) (Brd4 bromodomain 1) | melting point
1 | COc1cc2nc(-c3cc(C)c(O)c(C)c3)[nH]c(=O)c2cc1OC [Example 47, 2-(4-hydroxy-3,5-dimethylphenyl)-6,7-dimethoxyquinazolin-4(3H)-one] | Active | > 300 °C
2 | COc1cc(OC)c2c(=O)[nH]c(-c3ccc(O)c(CCO)c3)nc2c1 [Example 70, 2-(4-hydroxy-3-(2-hydroxyethyl)phenyl)-5,7-dimethoxyquinazolin-4(3H)-one] | Active | 249 to 250.3 °C
3 | COc1cc(O)c2c(=O)[nH]c(-c3cc(C)c(O)c(C)c3)nc2c1 [Example 98, 5-hydroxy-2-(4-hydroxy-3,5-dimethylphenyl)-7-methoxyquinazolin-4(3H)-one] | Inactive | 291.3 to 293 °C
4 | COc1cc2c(c(OC)c1)S(=O)(=O)NC(c1cc(C)c(O)c(C)c1)=C2 [Example 12, 6,8-dimethoxy-3-(4-hydroxy-3,5-dimethylphenyl)-2H-1,2-benzothiazine-1,1-dioxide] | Active | 246.6 to 247.4 °C
5 | COc1cc(OC)c2c(=O)[nH]c(-c3ccc(OCCO)c(Cl)c3)nc2c1 [Example 51, 2-(3-chloro-4-(2-hydroxyethoxy)phenyl)-5,7-dimethoxyquinazolin-4(3H)-one] | Inactive | 287 to 288 °C (dec.)
6 | COc1cc(OC)c2c(=O)[nH]c(-c3ccc(CCC(=O)O)cc3)nc2c1 [Example 48, 3-(4-(5,7-dimethoxy-4-oxo-3,4-dihydroquinazolin-2-yl)phenyl)propanoic acid] | Active | 250.6 to 251.1 °C
7 | O=c1[nH]c(-c2ccc(O)cc2)cc2ccccc12 [Example 1, 3-(4-Hydroxyphenyl)-2H-isoquinolin-1-one] | Active | 239 to 241 °C
8 | COc1cc2nc(-c3cc(C)c(OCCO)c(C)c3)[nH]c(=O)c2cc1OC [Example 53, 2-(4-(2-hydroxyethoxy)-3,5-dimethylphenyl)-6,7-dimethoxyquinazolin-4(3H)-one] | Inactive | > 300 °C
9 | COc1cc(OC)c2c(=O)[nH]c(-c3cc(C(C)(C)C)c(O)c(C(C)(C)C)c3)nc2c1 [Example 23, 2-(3,5-di-tert-butyl-4-hydroxyphenyl)-5,7-dimethoxyquinazolin-4(3H)-one] | Inactive | 229.7 to 230.5 °C
10 | O=c1[nH]c(-c2ccc(N(CCO)CCO)cc2)nc2ccccc12 [Example 40, 2-(4-(bis(2-hydroxyethyl)amino)phenyl)quinazolin-4(3H)-one] | Inactive | 228 to 230 °C
11 | COc1cc(OC)c2c(=O)[nH]c(-c3cc(C)c(NC(=O)CO)c(C)c3)nc2c1 [Example 55, N-(4-(5,7-dimethoxy-4-oxo-3,4-dihydroquinazolin-2-yl)-2,6-dimethylphenyl)-2-hydroxyacetamide] | Active | 190 to 192 °C
12 | CC(=O)Nc1ccc2nc(-c3cc(C)c(OCCO)c(C)c3)[nH]c(=O)c2c1 [Example 68, N-(2-(4-(2-hydroxyethoxy)-3,5-dimethylphenyl)-4-oxo-3,4-dihydroquinazolin-6-yl)acetamide] | Inactive | > 300 °C
13 | COc1cc(OC)c2c(=O)[nH]c(-c3ccc(O)c(OC)c3)nc2c1 [Example 26, 2-(4-hydroxy-3-methoxyphenyl)-5,7-dimethoxyquinazolin-4(3H)-one] | Active | 294 to 296 °C
14 | Cc1cc(-c2cc3nc(OC(C)C)cc(OC(C)C)c3c(=O)[nH]2)cc(C)c1O [Example 69, 7-(4-hydroxy-3,5-dimethylphenyl)-2,4-diisopropoxy-1,6-naphthyridin-5(6H)-one] | Active | 206 to 208 °C
15 | COc1cc(OC)c2c(=O)[nH]c(-c3cc(C)c(O)c(C)c3)nc2n1 [Example 63, 2-(4-hydroxy-3,5-dimethylphenyl)-5,7-dimethoxypyrido[2,3-d]pyrimidin-4(3H)-one] | Active | 297 to 299 °C
16 | COc1cc(OC)c2c(=O)[nH]c(-c3cc(C)c(OCCN4CCOCC4)c(C)c3)cc2n1 [Example 45, 7-(3,5-dimethyl-4-(2-morpholinoethoxy)phenyl)-2,4-dimethoxy-1,6-naphthyridin-5(6H)-one] | Active | 212.5 to 212.9 °C
17 | COc1cc(OC)c2c(=O)[nH]c(-c3ccc(N(CCO)CCO)cc3)nc2c1 [Example 41, 2-(4-(bis(2-hydroxyethyl)amino)phenyl)-5,7-dimethoxyquinazolin-4(3H)-one] | Active | 249 to 251 °C

Row | SMILES | FRET activity (<50 uM) (Brd4 bromodomain 1) | melting point
18 | COCCOc1c(C)cc(-c2nc3cc(OC)cc(OC)c3c(=O)[nH]2)cc1C [Example 73, 5,7-dimethoxy-2-(4-(2-methoxyethoxy)-3,5-dimethylphenyl)quinazolin-4(3H)-one] | Active | 201 to 202 °C
19 | COc1cc(OC)c2c(=O)[nH]c(-c3ccc(N(CCO)CCO)cc3)nc2n1 [Example 72, 2-(4-(bis(2-hydroxyethyl)amino)phenyl)-5,7-dimethoxy-pyrido[2,3-d]pyrimidin-4(3H)one] | Active | 277 to 279 °C
20 | COc1cc(OC)c2c(=O)[nH]c(-c3ccc(O)c(Cl)c3)nc2c1 [Example 27, 2-(3-chloro-4-hydroxyphenyl)-5,7-dimethoxyquinazolin-4(3H)-one] | Active | 279 to 281 °C
21 | COc1cc(OC)c2c(=O)[nH]c(-c3cc(C)c(OCC(C)(C)O)c(C)c3)cc2c1 [Example 11, 3-(4-(2-hydroxy-2-methylpropoxy)-3,5-dimethylphenyl)-6,8-dimethoxyisoquinolin-1(2H)-one] | Active | 252 to 254 °C
22 | CN(C)c1ccc(-c2nc3ccccc3c(=O)[nH]2)c2ccccc12 [Example 35, 2-(4-(dimethylamino)naphthalen-1-yl)quinazolin-4(3H)-one] | Inactive | 224 to 226 °C
23 | COc1ccc(-c2nc3cc(OC)cc(OC)c3c(=O)[nH]2)cc1 [Example 25, 5,7-dimethoxy-2-(4-methoxyphenyl)quinazolin-4(3H)-one] | Inactive | 276 to 277 °C
24 | O=c1[nH]c(-c2ccc3c(c2)OCCO3)nc2ccccc12 [Example 31, 2-(2,3-dihydrobenzo[b][1,4]dioxin-6-yl)quinazolin-4(3H)-one] | Inactive | 267 to 268 °C (dec.)
25 | COc1cc(OC)c2c(=O)[nH]c(-c3cc(C)c(OC)c(C)c3)cc2n1 [Example 58, 2,4-dimethoxy-7-(4-methoxy-3,5-dimethylphenyl)-1,6-naphthyridin-5(6H)-one] | Active | 262 to 263 °C (dec.)
26 | COc1cc2nc(-c3ccc4c(c3)OCCO4)[nH]c(=O)c2cc1OC [Example 43, 2-(2,3-dihydrobenzo[b][1,4]dioxin-6-yl)-6,7-dimethoxyquinazolin-4(3H)-one] | Inactive | 316.4 to 318.2 °C
27 | Cc1cc(-c2cc3ncccc3c(=O)[nH]2)cc(C)c1O (as salt: HCl) [Example 5, 7-(4-hydroxy-3,5-dimethylphenyl)-1,6-naphthyridin-5(6H)-one] | – | > 350 °C
28 | COc1cc(OC)c2c(=O)[nH]c(-c3ccncc3)nc2c1 (as salt: hydrochloride) [Example 28, 5,7-dimethoxy-2-(pyridin-4-yl)quinazolin-4(3H)-one] | – | 294 to 295 °C
29 | COc1cc(OC)c2c(=O)[nH]c(-c3cc(C)c(OCCO)c(C)c3)cc2n1 [Example 56, 7-(4-(2-hydroxyethoxy)-3,5-dimethylphenyl)-2,4-dimethoxy-1,6-naphthyridin-5(6H)-one] | – | 224.9 to 225.4 °C
30 | COc1cc(OC)c2c(=O)[nH]c(-c3cc(C)c(OCCN4CCOCC4)c(C)c3)nc2c1 (as salt: hydrochloride) [Example 17, 2-(3,5-dimethyl-4-(2-morpholinoethoxy)phenyl)-5,7-dimethoxyquinazolin-4(3H)-one] | – | 185 to 187 °C
31 | COc1cc(OC)c2c(=O)[nH]c(-c3ccc(OCCO)c(OC)c3)nc2c1 [Example 52, 2-(4-(2-hydroxyethoxy)-3-methoxyphenyl)-5,7-dimethoxyquinazolin-4(3H)-one] | – | 246 to 248 °C
32 | COc1cc2cc(-c3cc(C)c(O)c(C)c3)n(C)c(=O)c2c(OC)c1C [Example 14 (left), 3-(4-hydroxy-3,5-dimethylphenyl)-6,8-dimethoxy-2,7-dimethylisoquinolin-1(2H)-one] | – | 246 to 248 °C
33 | COc1cc(O)nc2cc(-c3cc(C)c(O)c(C)c3)[nH]c(=O)c12 (as salt: hydrochloride) [Example 9, 2-hydroxy-7-(4-hydroxy-3,5-dimethylphenyl)-4-methoxy-1,6-naphthyridin-5(6H)-one] | – | > 330 °C
34 | COc1cc(OC)c2c(=O)[nH]c(-c3cc(C)c(O)c(C)c3)cc2n1 (as salt: HCl) [Example 13, 7-(4-hydroxy-3,5-dimethylphenyl)-2,4-dimethoxy-1,6-naphthyridin-5(6H)-one] | – | > 324 °C
